Laboratory results as given in PMC8626775, “Anti-schistosomal activities of quinoxaline-containing compounds: From hit identification to lead optimisation” (European Journal of Medicinal Chemistry, 2021).
Where two headings read alike, the source gives them in different places.

Legend:
S. mansoni schistosomula = S. mansoni schistosomula high-throughput phenotype and motility screen (Roboworm), 72 h; type: cell-based, Schistosoma mansoni; settings: for EC50: Schistosoma mansoni; for Effect on phenotype and motility of S. mansoni schistosomula: primary tested concentrations 10 and 50 μM
Description: Cercariae derived from the NMRI ([…]) Puerto Rican strain (PR-1) of S. mansoni were shed from two Biomphalaria glabrata strains, the NMRI albino and pigmented outbred strains, under intensified lighting conditions (1 h of incubation at 26 °C). Cercariae were then mechanically transformed into schistosomula as previously described.
High-throughput screening (HTS) of selected compounds was conducted as previously described. Briefly, newly transformed schistosomula were distributed in a 384-well tissue culture plate (PerkinElmer, cat 6007460, seeding density of 120 parasites/well). Each compound (at a single concentration or two-fold titrations) was transferred into individual wells alongside the positive and negative controls (AUR at 10 μM final concentration in 0.625% DMSO and 0.625% DMSO, respectively). Schistosomula/compound co-cultures were then incubated at 37 °C for 72 h in a humidified atmosphere containing 5% CO2. Following the co-culture period, automatic assessment of compound-induced schistosomula motility and phenotypic changes were conducted with the high-content imaging platform Roboworm using the image analysis model previously described by Paveley et al..

S. mansoni adult worms = assay: S. mansoni adult worm motility screen (WormassayGP2), 72 h; type: cell-based, Schistosoma mansoni; settings: 12.5 and 6.25 μM
Source text: Mice (Mus musculus HsdOLa:TO - Tuck Ordinary; Envigo, UK) were used for the mammalian-specific propagation of the S. mansoni life cycle. Experimental animals were infected with 4000 or 180 S. mansoni cercariae/mouse and perfused three- or seven-weeks post-infection to obtain S. mansoni juvenile or adult worms, respectively. Preparation steps following perfusion have been described previously. Briefly, the parasite material was washed three times with pre-warmed adult worm media (DMEM (Gibco, Paisley, UK) supplemented with 10% (v/v) Fetal Calf Serum (FCS, Gibco, Paisley, UK), 1% (v/v) L-glutamine (Gibco, Paisley, UK) and an antibiotic mixture (150 Units/ml penicillin and 150 μg/ml streptomycin; Gibco, UK)) to remove residual host contamination and incubated in a humidified environment containing 5% CO2 at 37 °C for at least 1 h.
For the evaluation of anti-schistosomal activity on the adult stage of the parasite, 7-wk old worms were transferred into 48 well tissue culture plates (1–3 worm pairs/well, in duplicate). […] DMSO (0.5%) and praziquantel (10 μM in 0.5% DMSO) were also included as negative and positive control treatments. Treated adult worms were incubated for 72 h in a humidified environment containing 5% CO2 at 37 °C. Parasite motility after compound treatment was assessed by a digital image processing-based system (WormassayGP2), modified after Wormassay. Following compound-parasite co-incubation, eggs were collected, fixed in formalin (10% v/v formaldehyde) and enumerated aiming to collect further information on any compound-induced effects on parasite fecundity and IVLE production.

[1] = 72 h, Table 2, motility, 72 h, three replicate titrations (0.313–10 μM), read-out: Activity on schistosomula (EC50, μM - 72 h) M
[2] = 72 h, Table 2, phenotype, 72 h, three replicate titrations (0.313–10 μM), read-out: Activity on schistosomula (EC50, μM - 72 h) P
[3] = 72 h, Table S7, motility, 95% CI in brackets, read-out: Activity on schistosomula (EC50, µM - 72 h) (95% CI) M
[4] = 72 h, Table S7, phenotype, 95% CI in brackets, read-out: Activity on schistosomula (EC50, µM - 72 h) (95% CI) P
[5] = Table 5, Series C, read-out: Anti-schistosomal activity EC50 Schistosomula (μM) Motility
[6] = Table 5, Series C, read-out: Anti-schistosomal activity EC50 Schistosomula (μM) Phenotype
[7] = 72 h, Table 1, 72 h, two dose response titrations (0.313–10 μM), 95% CI in brackets, read-out: Activity on schistosomula (EC50, μM - 72 h) Motility
[8] = 72 h, Table 1, 72 h, two dose response titrations (0.313–10 μM), 95% CI in brackets, read-out: Activity on schistosomula (EC50, μM - 72 h) Phenotype
[9] = 72 h, Table 1, mean of phenotype and motility EC50, 72 h, read-out: Activity on schistosomula (EC50, μM - 72 h) Average
[10] = Fig. S3, average schistosomula EC50, read-out: EC50 (Fig. S3, anti-schistosomula activity)
[11] = 72 h, read-out: EC50 on schistosomula (bounds and ranges given)

Row | Compound | EC50 (S. mansoni schistosomula; [1]) [µM] | EC50 (S. mansoni schistosomula; [2]) [µM] | EC50 (S. mansoni schistosomula; [3]) [µM] | EC50 (S. mansoni schistosomula; [4]) [µM] | EC50 (S. mansoni schistosomula; [7]) [µM] | EC50 (S. mansoni schistosomula; [8]) [µM] | Effect on phenotype and motility of S. mansoni schistosomula (S. mansoni schistosomula; 72 h) | also measured
1 | Cc1ccc(Sc2nc3ccccc3nc2Sc2ccc(C)cc2)cc1 [Compound 14] |  |  |  |  | > 50 | > 50 | did not have any effect | EC50 (S. mansoni schistosomula; [10]): > 50 µM
2 | FC(F)(F)c1cccc(/N=c2\[nH]c3ccccc3s\c2=N\c2cccc(C(F)(F)F)c2)c1 [Compound 4] |  |  |  |  | > 50 | > 50 | did not have any effect | EC50 (S. mansoni schistosomula; [10]): > 50 µM
3 | COc1ccc(/N=c2\[nH]c3ccccc3s\c2=N\c2ccc(OC)cc2)cc1 [Compound 3] |  |  |  |  | > 50 | > 50 | did not have any effect | EC50 (S. mansoni schistosomula; [10]): > 50 µM
4 | Cc1cccc(Nc2nc3ccc([N+](=O)[O-])cc3nc2Nc2cccc(C)c2C)c1C [Compound 27, N2, N3-bis(2,3-dimethylphenyl)-6-nitroquinoxaline-2,3-diamine] | > 10 | > 10 | > 10 | > 10 |  |  |  | EC50 (S. mansoni schistosomula; [11]): > 10 µM; EC50 (S. mansoni schistosomula; Table 4, Series A, read-out: Anti-schistosomal activity EC50 Schistosomula (μM) Motility): > 10 µM; EC50 (S. mansoni schistosomula; Table 4, Series A, read-out: Anti-schistosomal activity EC50 Schistosomula (μM) Phenotype): > 10 µM
5 | O=[N+]([O-])c1ccc2nc(O)c(O)nc2c1 [6-nitro-2,3-dihydroxy-quinoxaline] | > 50 | > 50 | > 50 | > 50 |  |  |  | EC50 (S. mansoni schistosomula; Table 3, read-out: Anti-schistosomal activity EC50 (μM) Schistosomula Motility): > 50 µM; EC50 (S. mansoni schistosomula; Table 3, read-out: Anti-schistosomal activity EC50 (μM) Schistosomula Phenotype): > 50 µM
6 | Fc1ccccc1Nc1nc2ccccc2nc1Nc1ccccc1F [Compound 13] |  |  |  |  | > 10 | > 10 | weak effect | 
7 | Cc1ccc2[nH]c(=Nc3ccccc3C)c(=Nc3ccccc3C)[nH]c2c1 [Compound 5] |  |  |  |  | > 10 | > 10 | weak effect | 
8 | OCc1cccc(N=c2[nH]c3ccccc3[nH]c2=Nc2cccc(CO)c2)c1 [Compound 7] |  |  |  |  | > 10 | > 10 | weak effect | 

The next lines start with results.

Row | EC50 (S. mansoni schistosomula; [1]) [µM] | EC50 (S. mansoni schistosomula; [2]) [µM] | EC50 (S. mansoni schistosomula; [3]) [µM] | EC50 (S. mansoni schistosomula; [4]) [µM] | EC50 (S. mansoni schistosomula; [7]) [µM] | EC50 (S. mansoni schistosomula; [8]) [µM] | Compound | Effect on phenotype and motility of S. mansoni schistosomula (S. mansoni schistosomula; 72 h) | also measured
9 | > 50 | > 50 | > 50 | > 50 |  |  | O=C(Nc1ccc2nc(Nc3ccc(Cl)c(Cl)c3)c(Nc3ccc(Cl)c(Cl)c3)nc2c1)C1CCCCC1 [Compound 22e, N-(2,3-bis((3,4-dichlorophenyl)amino)quinoxalin-6-yl)cyclohexanecarboxamide] |  | EC50 (S. mansoni schistosomula; [5]): > 50 µM; EC50 (S. mansoni schistosomula; [6]): > 50 µM
10 |  |  |  |  | 3.69 | 5.42 | Cc1ccc(Nc2nc3ccccc3nc2Nc2ccc(C)c(C)c2)cc1C [Compound 16] |  | Activity on schistosomula in the primary screen at 10 μM (S. mansoni schistosomula; 72 h): retained activity; EC50 (S. mansoni schistosomula; [9]): 4.55 µM; Effect on adult worm motility at 12.5 and 6.25 μM (S. mansoni adult worms): particularly active
11 |  |  |  |  | 2.45 | 2.88 | Cc1ccc(Nc2nc3ccccc3nc2Nc2ccc(C)c(Cl)c2)cc1Cl [Compound 17] |  | Activity on schistosomula in the primary screen at 10 μM (S. mansoni schistosomula; 72 h): retained activity; EC50 (S. mansoni schistosomula; [9]): 2.66 µM; EC50 (S. mansoni schistosomula; [11]): 1 to 2 µM
12 | > 10 | > 10 | > 10 | > 10 |  |  | Clc1ccc(Nc2nc3ccc(N4CCCC4)cc3nc2Nc2ccc(Cl)c(Cl)c2)cc1Cl [Compound 22b, N^2, N^3-bis(3,4-dichlorophenyl)-6-(pyrrolidin-1-yl)quinoxaline-2,3-diamine] |  | Activity on schistosomula in the primary screen at 50 μM (S. mansoni schistosomula; 50 μM, 72 h): affected schistosomula motility, but not phenotype; EC50 (S. mansoni schistosomula; [5]): > 10 µM; EC50 (S. mansoni schistosomula; [6]): > 10 µM
